Laboratory results reported in PubChem BioAssay (NCI).
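96-well plates; 48 h exposure; 5 concentrations. Endpoints by linear interpolation between flanking doses. Not reached: highest tested concentration assigned. GI50: concentration for 50% inhibition of growth. The concentration for full growth arrest is given as TGI.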

Columns and labels:
Assay in all cases: growth of human tumour cells (NCI), 48 h
[1] = system: BT-549 breast
[2] = system: CCRF-CEM leukemia
[3] = system: HL-60(TB) leukemia
[4] = system: HOP-92 NSCLC
[5] = system: NCI-H522 lung
[6] = system: OVCAR-3 ovarian
[7] = system: OVCAR-8 ovarian
[8] = system: SF-295 CNS
[9] = system: SF-539 CNS
[10] = system: T-47D breast

SMILES	GI50 [1]	TGI [1]	GI50 [2]	TGI [2]	GI50 [3]	TGI [3]	GI50 [4]	TGI [4]	GI50 [5]	TGI [5]	GI50 [6]	TGI [6]	GI50 [7]	TGI [7]	GI50 [8]	GI50 [9]	TGI [9]	GI50 [10]	TGI [10]	TGI [8]
COc1cc(C(=O)NC2CCN(C)CC2)c(F)cc1Nc1ncc2c(n1)N(C1CCCC1)CC(F)(F)C(=O)N2C	1.87 µM	20 µM	< 0.01 µM	3.58 µM	< 0.01 µM	< 0.0197 µM	0.0326 µM	0.391 µM	< 0.01 µM	< 0.0208 µM	< 0.0155 µM	5.87 µM	0.0338 µM	18.7 µM	< 0.0176 µM	< 0.0181 µM	1.3 µM	< 0.0315 µM	13 µM	
Cc1ccc(CNc2c3ccccc3nc3cc(NC(=O)CCN4CCCC4)ccc23)cc1	1.47 µM	2.88 µM	0.392 µM	2.12 µM			0.516 µM	2.13 µM	0.509 µM	1.95 µM	0.768 µM	2.11 µM			1.04 µM	0.618 µM	1.9 µM	0.751 µM	3.02 µM	2.35 µM
C[CH2][Sn]([CH2]C)([O]C(=O)C(OC(C)=O)c1ccccc1)[O]C(=O)C(OC(C)=O)c1ccccc1 (stereo unspecified)	16.1 µM	29.7 µM	1.93 µM	6.15 µM	10 µM	29.8 µM	18.6 µM	34.9 µM	1.58 µM	4.35 µM	> 100 µM	> 100 µM	> 100 µM	> 100 µM	> 100 µM	17.5 µM	33 µM	12.9 µM	28 µM	> 100 µM
C=C1C(=O)OC2C1C(OC(=O)/C(C)=C/C)CC(O)(CCl)C1C(O)C3OC3(C)C21O (stereo unspecified)		> 50 µM		> 50 µM		23.2 µM		> 50 µM		10.2 µM		> 50 µM		42.5 µM			> 50 µM		> 50 µM	> 50 µM
COc1ccc(/C=C2\CCCC3=C2NC(N)=NC3c2ccc(OC)c(OC)c2)cc1OC (stereo unspecified)	3.62 µM	> 100 µM	2.42 µM	> 100 µM	4.52 µM	> 100 µM	2.61 µM	17.1 µM	7 µM	36.8 µM	5.41 µM	> 100 µM	2.08 µM	> 100 µM	8.69 µM	24.4 µM	> 100 µM	6.61 µM	> 60.5 µM	> 100 µM
CCOc1ccccc1N=Nc1c(C)[nH]n(-c2nc(-c3ccccc3)cs2)c1=O	29.2 µM	> 100 µM	> 100 µM	> 100 µM	> 100 µM	> 100 µM	21.9 µM	> 96.8 µM	22.1 µM	87.6 µM	57.7 µM	> 100 µM	29 µM	> 100 µM	28.3 µM	27.5 µM	> 100 µM	30.1 µM	> 100 µM	> 100 µM
O=C(COc1ccc(/C=C2\Oc3ccccc3C2=O)cc1)Nc1nc2c(s1)CCCC2	4.44 µM	> 49.8 µM	0.148 µM	0.309 µM	0.424 µM	1.31 µM	0.212 µM	2.53 µM	0.165 µM	0.406 µM	1.83 µM	25.5 µM			10.1 µM	0.622 µM	1.4 µM	48.4 µM	> 100 µM	43.9 µM
CC1(C)[C@@H](OC(N)=O)[C@H]2O[C@H]2[C@]2(CO)[C@H]3CC[C@]4(C)[C@@H](c5ccc(=O)oc5)[C@@H](Cl)C[C@]4(O)C3=CC[C@@H]12	0.00695 µM	0.0257 µM	0.00768 µM	0.0264 µM	0.00609 µM	0.014 µM	0.0127 µM	0.0921 µM	0.00455 µM	0.0147 µM	0.00618 µM	0.014 µM	0.00863 µM	0.0297 µM	0.0072 µM	0.00453 µM	0.00951 µM	0.0076 µM	0.0333 µM	0.0264 µM
COc1c2c(nc3ccccc13)-c1cc3c(c(=O)n1C2)COC(=O)C3(O)CC(=O)N1CCOCC1 (stereo unspecified)		> 53.1 µM		3.95 µM		17.6 µM		63.4 µM		31.4 µM		55 µM		33.8 µM			5.8 µM		72.3 µM	31.7 µM
O=C1c2ccccc2-c2c1c1ccccc1c(=O)n2CCN1CCOCC1	> 100 µM	> 100 µM	49.1 µM	> 100 µM			> 100 µM	> 100 µM	39.5 µM	> 100 µM	82.2 µM	> 100 µM	60.6 µM	> 100 µM	48.1 µM	84.9 µM	> 100 µM	> 100 µM	> 100 µM	> 100 µM
CN1CC[C@@H](c2c(O)cc(O)c3c(=O)cc(-c4ccccc4Cl)oc23)[C@@H]1CO	0.38 µM	2.52 µM	0.259 µM	> 3.13 µM	0.313 µM	1.99 µM	0.19 µM	0.701 µM	0.357 µM	2.76 µM	0.278 µM	2.17 µM	0.321 µM	> 10 µM	0.335 µM	0.275 µM	0.863 µM	0.245 µM	1.1 µM	> 10 µM
O=C(NN1C(=O)CSC12CCCC2)c1[nH]c2ccc(Br)cc2c1-c1ccccc1	93.5 µM	> 100 µM	40.1 µM	> 100 µM			33.8 µM	> 100 µM	30.4 µM	> 100 µM	18.8 µM	56.7 µM	41 µM	> 100 µM	24.2 µM	> 100 µM	> 100 µM	39.1 µM	> 100 µM	69.7 µM
C[C@]12CC[C@H]3[C@@H](CC[C@]4(O)C[C@@H](O)CC[C@]34/C=N/O)[C@@]1(O)CC[C@@H]2C1=COC(=O)C1		0.245 µM		> 100 µM				1.06 µM		0.371 µM		0.349 µM		0.458 µM			0.221 µM		0.975 µM	0.386 µM
O=C(Nc1cccc(NC(=O)Nc2cc(C(F)(F)F)ccc2Cl)c1)Nc1cc(C(F)(F)F)ccc1Cl	5.55 µM	38.4 µM	3.21 µM	71.7 µM			1.99 µM	5.06 µM	1.21 µM	7.78 µM			2.05 µM	15.7 µM	1.59 µM	6.15 µM	32 µM	0.407 µM	11.4 µM	12.2 µM
CCc1ccc(NC(=O)COC(=O)c2cc([N+](=O)[O-])ccc2Sc2nnnn2C)cc1	4.42 µM	26.6 µM	9.11 µM	78.3 µM	18.8 µM	49.7 µM	22.8 µM	82.7 µM	11.5 µM	36.3 µM	11.7 µM	25.4 µM			17.5 µM	16.7 µM	42.8 µM	18.5 µM	82.4 µM	49.4 µM
O=C(Nc1ccc(Cl)c(Cl)c1)O/N=C\c1c(Cl)ccc([N+](=O)[O-])c1Cl	2.57 µM	6.42 µM	1.88 µM	5.1 µM	1.18 µM	3.13 µM			1.34 µM	2.88 µM	1.31 µM	2.76 µM	2.62 µM	8.47 µM	2.8 µM	2.64 µM	8.36 µM	0.778 µM	3.54 µM	8.14 µM
COc1ccc2c(c1)C(=O)c1c-2c(N(C)C)nc2ccccc12	> 100 µM	> 100 µM	> 100 µM	> 100 µM	> 100 µM	> 100 µM	72.6 µM	> 100 µM	> 100 µM	> 100 µM			> 100 µM	> 100 µM		> 100 µM	> 100 µM	> 100 µM	> 100 µM	

SMILES	GI50 [1]	TGI [1]	GI50 [2]	TGI [2]	GI50 [3]	TGI [3]	GI50 [4]	TGI [4]	GI50 [5]	TGI [5]	GI50 [6]	TGI [6]	GI50 [7]	TGI [7]	GI50 [8]	GI50 [9]	TGI [9]	GI50 [10]	TGI [10]	TGI [8]
NC(=O)c1c(NC(=O)c2ccc3c(c2)OCO3)sc2c1CCC(=O)C2	0.373 µM	5.57 µM	0.333 µM	2.32 µM	0.554 µM	8.28 µM	1.65 µM	5.91 µM	0.355 µM	2.29 µM			1.75 µM	> 100 µM	2.31 µM			0.592 µM	3.81 µM	6.71 µM
COc1cc([C@H]2OC[C@H]3[C@@H]2CO[C@@H]3c2cc(OC)c3c(c2)OCO3)cc(OC)c1OC		> 100 µM				> 100 µM		> 100 µM		> 100 µM		> 100 µM		> 100 µM			> 100 µM		> 100 µM	> 100 µM
C/C=C(/COC(C)=O)C(=O)OC1C=C(C=O)C(C)(C)C=C1C (stereo unspecified)		> 100 µM		> 100 µM		> 100 µM		> 100 µM		> 100 µM				> 100 µM			> 100 µM		> 100 µM	> 100 µM
Nc1[nH]nc2nc(-c3cccs3)cc(C(F)(F)F)c12	> 24.1 µM	> 25 µM			> 25 µM	> 25 µM	> 14.1 µM	> 25 µM	> 13.9 µM	> 25 µM	> 25 µM	> 25 µM	> 25 µM	> 25 µM	> 25 µM	> 25 µM	> 25 µM	> 25 µM	> 25 µM	> 25 µM
CN1c2ccccc2N(C)C23N(C)c4ccccc4N(C)C12N(C)c1ccccc1N3C (stereo unspecified)				> 100 µM		> 100 µM		> 100 µM		> 100 µM		> 100 µM		> 100 µM			> 100 µM			> 100 µM
CCOC(=O)NC(=O)c1cn(CCN2CCN(c3ncnc4nc[nH]c34)CC2)c(=O)[nH]c1=O				> 100 µM		> 100 µM		> 100 µM		> 100 µM		> 100 µM		> 100 µM			> 100 µM			> 100 µM
CCc1cccc(C)c1NC(=O)C(=O)Cc1nc2ccccc2s1				> 100 µM		> 100 µM		5.88 µM		> 100 µM		> 100 µM		> 100 µM			> 100 µM			> 100 µM
CCCOC(=O)N1CCN(/[N+]([O-])=N/Oc2ccc([N+](=O)[O-])cc2[N+](=O)[O-])CC1	3.46 µM	11.7 µM			0.727 µM	8.15 µM			3.16 µM	15.7 µM	2.29 µM	4.48 µM	9.35 µM	72.8 µM	3.76 µM	0.273 µM	0.648 µM			14.9 µM
O=C1CC(S(=O)(=O)O)C=C1Nc1cccc(Cl)c1 (stereo unspecified)				> 100 µM		> 100 µM		> 100 µM		> 100 µM		> 100 µM		> 100 µM			> 100 µM			> 100 µM
CC#CC(=O)SCCNC(=O)CC		> 10 µM		> 8.72 µM		> 10 µM				3.14 µM		> 10 µM		> 10 µM			> 10 µM		> 10 µM	> 10 µM
O=CN/C=C/c1ccc(O)c(O)c1				> 100 µM		> 100 µM		> 100 µM		> 100 µM		> 100 µM		> 100 µM			> 100 µM			> 100 µM
C1=C2/CC[C@H](Sc3ccccc3)[C@H]2C2(CCCCC/1)OCCO2				66.4 µM		65.7 µM		59.1 µM		39.6 µM		81.7 µM		> 100 µM			> 100 µM			> 100 µM
Cc1ccc(N2C(=O)C3C=CC(n4[nH]c(=O)n(Cc5ccccc5)c4=O)CC3C2=O)cc1 (stereo unspecified)				> 100 µM		> 100 µM		> 100 µM		> 100 µM		> 100 µM		> 100 µM			> 100 µM			> 100 µM
CCOC(=O)C(=Cc1cccnc1C)C(=O)OCC				> 100 µM		> 100 µM		24.5 µM		11.7 µM		8.67 µM		16.9 µM			33.3 µM			24.2 µM
Cc1cccc(C(C)C)c1NC(=O)CC1C(=O)Nc2ccccc2S1(=O)=O (stereo unspecified)				30.2 µM		28.4 µM		30.7 µM		31.5 µM		38.5 µM		> 59 µM			14.5 µM			67.1 µM
O=c1c2ccccc2nc(-c2ccccc2)n1NC1OC(CO)C(O)C(O)C1O (stereo unspecified)				> 100 µM		> 100 µM		> 100 µM		> 100 µM		> 100 µM		> 100 µM			> 100 µM			> 100 µM
